# Experimental data reported in PubChem BioAssay AID2423 (Broad Institute, 2010).
# Records with an inconclusive call do not appear. The source made the active and inactive calls. No rule for the calls is given here.
# Tested on: C. albicans CaCi-8 + fluconazole, Alamar Blue growth, 48 h
# Assay: resistant C. albicans growth inhibition with fluconazole, dose response, CaCi-8 strain, Alamar Blue fluorescence (AID 2423)
row,SMILES,EC50
1,CCOC(=O)c1cnc2ccc(C)cc2c1Nc1ccc(N2CCOCC2)cc1,1100 nM
2,COc1ccc(-n2cc(-c3ccc(C)cc3)[n+]3c2SCC3)cc1,2940 nM
3,O=C(N/N=C/c1cc([N+](=O)[O-])ccc1O)/C(=C\c1cccs1)NC(=O)c1ccccc1,3590 nM
4,COc1ccc(-c2nc(CN3CCN(c4cc(C)nc(C)c4)CC3)c(C)o2)c2ccccc12,2490 nM
5,O=C(NNC(=O)c1cc(-c2ccncc2)nc2ccccc12)c1ccccc1O,2290 nM
6,N=C1/C(=C\c2ccc(SCc3ccccc3)o2)C(=O)N=C2SC=NN12,> 15000 nM (inactive)
7,COc1cccc(/C=N/NC(=O)C(=O)Nc2ccccc2OC(F)(F)C(F)F)c1O,1020 nM
8,COc1ccc(/C=C/C(=O)N(c2ccccn2)C2CCCCC2)cc1OC,7990 nM
9,COc1cccc(/C=N/Nc2cc(N3CCOCC3)ncn2)c1O,6270 nM
10,O=C(Nc1ccccc1)OCN1C(=O)c2ccccc2C1=O,> 15000 nM (inactive)
11,CCc1ccc(CNC(=O)CCC(=O)N2Cc3cccc(OC)c3Oc3ncccc32)cc1,> 16000 nM (inactive)
12,O=C(COc1ccccc1)Nc1nnc(-c2ccc3c(c2)CCCC3)o1,727 nM
13,CCCOc1cccc(C(=O)Nc2cccnc2)c1,2200 nM
14,NC(=O)c1ccsc1NC(=O)CCS(=O)(=O)c1ccccc1,1730 nM
15,CC(C)(C)NC(=S)N/N=C/c1cc(Br)c(O)c(Br)c1,> 15000 nM (inactive)
16,Cc1ccc(NCc2ccc(O)c3ncccc23)cc1C,13400 nM
17,CCCCCCCCCCCCCCCC[n+]1cccc(C(=O)N(CC)CC)c1,6230 nM
18,O=C(NNC1=C(C(=O)C(F)(F)F)CCC1)c1cccc(Cl)c1,1960 nM
19,NC(=O)c1c(NC(=O)c2ccccc2F)sc2c1CCCC2,2010 nM
20,COc1cccc(/C=N/NC(=O)c2cc(-c3cccn3C)n[nH]2)c1O,5640 nM
21,Cc1ccc(O)c(N=Cc2cc(Cc3ccccc3)cc([N+](=O)[O-])c2O)c1,13700 nM
22,CCc1ccc(/C=C2/SC(=S)N(CCCC(=O)Nc3ccccc3C(=O)O)C2=O)cc1,982 nM

row,SMILES,EC50
1,COc1ccc(C(=O)NN/C(C)=C/C(=O)C(F)(F)C(F)(F)C(F)(F)F)cc1,5050 nM
2,CCN(CC)c1ccc(/C=N/Nc2nc(C)cc(=O)[nH]2)c(O)c1,500 nM
3,O=c1c2cc(Br)ccc2nc(-c2ccccc2)n1O,2080 nM
4,O=C1N/C(=N\N=C\c2cccnc2)SC1Cc1ccc(SC(F)F)cc1 (stereo not given),3240 nM
5,COc1ccc(C(=O)N/N=C(\Cc2ncc[nH]2)c2ccccc2)cc1,> 16000 nM (inactive)
6,Cc1ccc(SCC(=O)Nc2ccc3c(c2)C(=O)N(C)C3=O)cc1,> 15000 nM (inactive)
7,CC(=O)O/N=C/c1c(N2CCOCC2)n(C)c2ccccc12,403 nM
8,Cc1nn2c([nH]c(=O)c3ccccc32)c1C=O,961 nM
9,Oc1ccc(N=Nc2nccs2)c(O)c1,7250 nM
10,O=C(Nc1nnc(-c2ccccn2)o1)c1ccc(Br)cc1,> 15000 nM (inactive)
11,COc1ccccc1N1CCN(C(=O)c2cc3cc(Cl)ccc3[nH]2)CC1,> 15000 nM (inactive)
12,O=C(Cc1ccc([N+](=O)[O-])cc1)NNC(=O)c1ccc2c(c1)OCO2,> 15000 nM (inactive)
13,CC(C)c1noc2ncc(C(=O)c3cc(Cl)cc(Cl)c3O)cc12,2910 nM
14,O=C(O)c1ccc(-c2nc(-c3ccc(Cl)c(Cl)c3)cs2)cc1,4160 nM
15,CCCC(=O)NC(=S)NNC(=O)c1ccc([N+](=O)[O-])cc1,4900 nM
16,COc1cccc(N=Nc2ccc3cccnc3c2O)c1,430 nM
17,O=c1cc(-c2ccccc2)c2ccc(O)cc2o1,3530 nM
18,Cc1ccc(C(=O)c2coc3cc([N+](=O)[O-])c(O)c([N+](=O)[O-])c23)cc1,1230 nM
19,Cc1nc(SCc2ccc(Cl)c(Cl)c2)ncc1C(=O)O,> 15000 nM (inactive)
20,O=C(/C=C/c1cc(Br)ccc1O)c1ccco1,458 nM
21,CC(Oc1cc2oc(=O)c3c(c2cc1Cl)CCCC3)C(=O)NCc1ccncc1 (stereo not given),6600 nM
22,O=C(Nc1nc2ccc(S(=O)(=O)N3CCCCC3)cc2s1)c1ccncc1,1040 nM

row,SMILES,EC50
1,C/C(=N\NC(=O)c1cc(-c2cccnc2)nc2ccccc12)c1ccc(O)cc1O,1450 nM
2,N=C(N)c1ccc(/C=C/c2ccc(C(=N)N)cc2O)cc1,> 15000 nM (inactive)
3,S=C(NCCN1CCOCC1)NC1CCCC1,> 15000 nM (inactive)
4,O=Cc1ccc(O)c2ncccc12,1450 nM
5,O=c1nc(/C=C/c2cc([N+](=O)[O-])ccc2Cl)cc(C(F)(F)F)[nH]1,946 nM
6,Cc1ccc2occ(/C=N/NC(=O)c3ccccc3O)c(=O)c2c1,15100 nM
7,COc1cc2c(cc1NC(=O)c1ccco1)CCCC2,1060 nM
8,CCOC(=O)C1CCN(C(=O)c2ccc3c(=O)n4nc(Nc5cc(C)ccc5C)sc4nc3c2)CC1,400 nM
9,CCCC(=O)NC(c1cccs1)c1cc(Cl)c2cccnc2c1O (stereo not given),729 nM
10,CC(=O)N1CCOCCOCCN(C(C)=O)CCOCCOCC1,> 15000 nM (inactive)
11,CCN(CC)c1cccc(OC2=NS(=O)(=O)c3ccccc32)c1,11000 nM
12,O=C1NC(=O)/C(=C/c2ccccc2Oc2ccc(Cl)cc2)S1,> 16000 nM (inactive)
13,Cc1cccc(Cc2cnc(N3C(=N)SC(C)C3=O)s2)c1 (stereo not given),> 16000 nM (inactive)
14,Cc1cccc(/C=C/C(=O)c2cc(Br)ccc(=O)c2O)c1,987 nM
15,Cc1ccc(S(=O)(=O)c2c(C)nn(C(C)(C)C)c2OC(=O)c2ccc(Br)o2)cc1,> 16000 nM (inactive)
16,O=C(CCS(=O)(=O)Cc1ccccc1)Nc1nnc(C(F)(F)F)s1,746 nM
17,CC/C(=N/NC(=O)c1ccccc1O)c1c(C)[nH]n(-c2ccccc2)c1=O,754 nM
18,Cc1ccc(NC(=O)c2noc(C(C)C)c2[N+](=O)[O-])cc1,3200 nM
19,COc1cccc(C2C(C(=O)c3cc4ccccc4o3)=C(O)C(=O)N2c2cc(C)on2)c1OC (stereo not given),154 nM
20,O=C(Oc1c(CN2CCOCC2)cc(Cl)c2cccnc12)c1cccs1,3400 nM
21,COc1ccc(-c2cc(-c3c(O)c(OC)c4occc4c3OC)[nH]n2)cc1,> 15000 nM (inactive)
22,Oc1c(C(Nc2cccc(C(F)(F)F)c2)c2ccncc2)ccc2cccnc12 (stereo not given),2440 nM

row,SMILES,EC50
1,CC(C)(C)c1nnc(NC(=O)CCS(=O)(=O)c2ccccc2)s1,943 nM
2,O=C(N/N=C/c1sc2ccccc2c1O)c1cccc2ccccc12,1580 nM
3,Cc1ccc(NC(=O)NC2CCCCCCC2)c(C)c1,> 16000 nM (inactive)
4,CC12CCC(C(=O)Nc3ncc([N+](=O)[O-])s3)(OC1=O)C2(C)C (stereo not given),> 16000 nM (inactive)
5,O=C(N/N=C/c1ccc(O)cc1O)c1ccc(CN2C(=O)c3cccc4cccc2c34)cc1,709 nM
6,O=C(CCC(=O)Nc1ccccc1Cl)NNS(=O)(=O)c1ccc(Cl)cc1,> 16000 nM (inactive)
7,COc1ccccc1NC(=O)CN1CCN(c2ccccc2OC)CC1,> 16000 nM (inactive)
8,FC(F)(F)COc1nc(OCC(F)(F)F)nc(N2CCN(c3ccccc3)CC2)n1,> 16000 nM (inactive)
9,O=[N+]([O-])c1c(C(Cl)Cl)nn(-c2ccc(Cl)cc2)c1N1CCCCC1,441 nM
10,COc1cccc(/C=N/NC(=O)c2c(C)nc3ccc(Cl)cn23)c1O,1710 nM
11,Cc1cc(C)nc(NS(=O)(=O)c2ccc(NC(=O)COc3ccccc3)cc2)n1,> 15000 nM (inactive)
12,Cc1cc(NC(=O)c2cccc(Oc3ccccc3)c2)n[nH]1,1570 nM
13,Cc1ccc(OCC(=O)N/N=C\c2c(C)[nH]n(-c3ccccc3)c2=O)c([N+](=O)[O-])c1,6600 nM
14,O=c1[nH]c(SCc2ccccc2F)nc2ccccc12,2120 nM
15,Cn1c(NN)nc2sc3c(c2c1=O)CCC3,10100 nM
16,Cc1nn(CC(=O)NCCCc2ccccc2)c(C)c1[N+](=O)[O-],> 15000 nM (inactive)
17,Cc1ccc(-n2c(O)c(C=Nc3ccccc3-c3n[nH]c(=S)[nH]c3=O)c3ccccc3c2=O)cc1C,496 nM
18,COc1cccc(/C=N/Nc2ncnc3scc(-c4ccccc4)c23)c1O,1190 nM
19,COc1ccc(C(=O)NC(=S)NNC(=O)c2ccc3ccccc3n2)cc1,583 nM
20,O=C(c1ccccc1)C(CN1CCCC1)c1ccccc1 (stereo not given),> 16000 nM (inactive)
21,CNC(=O)c1ccc2c(c1)nnn2C,> 15000 nM (inactive)
22,CC(=O)Nc1cccc(NC(=O)Nc2cccc(F)c2)c1,> 15000 nM (inactive)

row,SMILES,EC50
1,Cn1cc(C(c2ccccn2)c2cn(C)c3ccccc23)c2ccccc21,185 nM
2,O=C(N/N=C/c1ccc(O)c(O)c1O)/C(=C/c1ccc([N+](=O)[O-])cc1)NC(=O)c1ccccc1,807 nM
3,COc1ccc(-c2cc(C(=O)NNC(=S)NC(=O)c3c(-c4ccccc4)noc3C)[nH]n2)cc1,2460 nM
4,CCn1cc(/C=C/c2cc[n+](C)cc2)c2ccccc21,9300 nM
5,O=C(/C(=N/N=C/c1ccc(O)c(O)c1O)c1ccccc1)c1ccccc1,2300 nM
6,CC[n+]1c(/C=C/N(C)c2ccccc2)n(-c2ccccc2)c2ccc(-c3nc4ccccc4s3)cc21,1200 nM
7,N/C(Cc1ccc(Cl)c(Cl)c1)=N\OC(=O)c1cccs1,893 nM
8,CCOc1ccccc1NC(=O)C(=O)N/N=C/c1cc(Br)ccc1O,1380 nM
9,Cc1nn(-c2ccccc2)c(N)c1N=Nc1ccc(Cl)cc1,7760 nM
10,Cc1ccc(/C=C2\SC(=S)N(/N=C/c3cc([N+](=O)[O-])ccc3O)C2=O)o1,3330 nM
11,O=[N+]([O-])c1cc(Cl)c(O)c2ncccc12,344 nM
12,Cc1c(Cl)ccc2c1NC(=O)[C@]21N[C@@H](Cc2ccccc2)[C@H]2C(=O)N(c3ccc(F)cc3)C(=O)[C@H]21,< 120 nM
13,FC(F)(F)c1ccccc1NC(=S)NN=C1CCCCCC1,4950 nM
14,CCOC(=O)c1sc(N2C(=O)C(O)=C(C(=O)c3ccco3)C2c2cccc(Cl)c2)nc1C (stereo not given),597 nM
15,CCN(CC)c1ccc(/C=C/C(=O)c2cccnc2)cc1,< 120 nM
16,COc1ccc(-c2n(CC(=O)OC3CC(C)CCC3C(C)C)c3ccccc3[n+]2C)cc1 (stereo not given),365 nM
17,O=C(O)c1ccccc1-c1ccccc1C(=O)Nc1cccc(-c2nc3ccccc3o2)c1,2240 nM
18,O=[N+]([O-])c1cc(O)c2ncccc2c1,763 nM
19,CCOC(=O)C1CCN(CCC(=O)Nc2ccc(F)cc2)CC1,> 15000 nM (inactive)
20,Cc1cccc(NC(=O)CSC(N)=O)c1C,> 15000 nM (inactive)
21,CCOC(=O)COc1ccc(S(=O)(=O)N2CCN(c3ccccc3F)CC2)cc1,> 15000 nM (inactive)
22,O=c1[nH]n2c(C(F)(F)F)cc(C3CC3)nc2c1N=Nc1ccccc1,4250 nM
